From the NIST ThermoML archive (doi:10.1016/j.fluid.2015.06.041)
± gives the expanded uncertainty stated by the source.

Test: xn = mol fraction of the nth substance listed
Details: 101 kPa, Liquid; for viscosity: Capillary tube (Ostwald / Ubbelohde) method; for speed of sound: Frequency=2 MHz, Linear variable-path acoustic interferometer; for mass density: Vibrating tube method

For `ClCCCl` [1,2-dichloroethane] + C1COCCO1, the viscosity (298.15 K, x2 = 0) was 0.7804 ± 0.024 mPa·s, the viscosity (298.15 K, x2 = 0.0934) was 0.8045 ± 0.025 mPa·s and the viscosity (298.15 K, x2 = 0.1881) was 0.8332 ± 0.025 mPa·s. It also gave a viscosity (298.15 K, x2 = 0.2843) of 0.864 ± 0.026 mPa·s, a viscosity (298.15 K, x2 = 0.3819) of 0.8974 ± 0.027 mPa·s and a viscosity (298.15 K, x2 = 0.4258) of 0.9132 ± 0.028 mPa·s. For the same compound, the viscosity (298.15 K, x2 = 0.5816) was 0.9729 ± 0.03 mPa·s, the viscosity (298.15 K, x2 = 0.6838) was 1.016 ± 0.031 mPa·s and the viscosity (298.15 K, x2 = 0.7875) was 1.064 ± 0.032 mPa·s. The viscosity (298.15 K, x2 = 0.8929) was 1.117 ± 0.034 mPa·s, the speed of sound (298.15 K, x2 = 0) was 1193.6 ± 1.3 m/s and the speed of sound (298.15 K, x2 = 0.0934) was 1198.9 ± 1.3 m/s. It also gave a speed of sound (298.15 K, x2 = 0.1881) of 1204.7 ± 1.3 m/s, a speed of sound (298.15 K, x2 = 0.2843) of 1211.7 ± 1.3 m/s and a speed of sound (298.15 K, x2 = 0.3819) of 1218.7 ± 1.4 m/s. The speed of sound (298.15 K, x2 = 0.4258) was 1222.7 ± 1.4 m/s, the speed of sound (298.15 K, x2 = 0.5816) was 1240.4 ± 1.4 m/s and the speed of sound (298.15 K, x2 = 0.6838) was 1256.1 ± 1.4 m/s. The speed of sound (298.15 K, x2 = 0.7875) was 1277.4 ± 1.4 m/s, the speed of sound (298.15 K, x2 = 0.8929) was 1306.8 ± 1.4 m/s and the mass density (298.15 K, x2 = 0) was 1246.37 ± 0.16 kg/m3. For the same compound, the mass density (298.15 K, x2 = 0.0934) was 1221.34 ± 0.19 kg/m3, the mass density (298.15 K, x2 = 0.1881) was 1197.17 ± 0.18 kg/m3 and the mass density (298.15 K, x2 = 0.2843) was 1173.99 ± 0.17 kg/m3. For the same compound, the mass density (298.15 K, x2 = 0.3819) was 1151.77 ± 0.17 kg/m3, the mass density (298.15 K, x2 = 0.4258) was 1142.09 ± 0.16 kg/m3 and the mass density (298.15 K, x2 = 0.5816) was 1109.56 ± 0.15 kg/m3. It also gave a mass density (298.15 K, x2 = 0.6838) of 1089.25 ± 0.15 kg/m3, a mass density (298.15 K, x2 = 0.7875) of 1069.16 ± 0.14 kg/m3 and a mass density (298.15 K, x2 = 0.8929) of 1048.86 ± 0.14 kg/m3. The viscosity (308.15 K, x2 = 0) was 0.6744 ± 0.021 mPa·s, the viscosity (308.15 K, x2 = 0.0934) was 0.6918 ± 0.021 mPa·s and the viscosity (308.15 K, x2 = 0.1881) was 0.7127 ± 0.022 mPa·s. It also gave a viscosity (308.15 K, x2 = 0.2843) of 0.737 ± 0.023 mPa·s, a viscosity (308.15 K, x2 = 0.3819) of 0.7628 ± 0.023 mPa·s and a viscosity (308.15 K, x2 = 0.4258) of 0.7747 ± 0.024 mPa·s. For the same compound, the viscosity (308.15 K, x2 = 0.5816) was 0.8211 ± 0.025 mPa·s, the viscosity (308.15 K, x2 = 0.6838) was 0.8551 ± 0.026 mPa·s and the viscosity (308.15 K, x2 = 0.7875) was 0.8949 ± 0.027 mPa·s. It also gave a viscosity (308.15 K, x2 = 0.8929) of 0.9435 ± 0.029 mPa·s, a mass density (308.15 K, x2 = 0) of 1231.21 ± 0.16 kg/m3 and a mass density (308.15 K, x2 = 0.0934) of 1206.17 ± 0.19 kg/m3. It also gave a mass density (308.15 K, x2 = 0.1881) of 1182.34 ± 0.18 kg/m3, a mass density (308.15 K, x2 = 0.2843) of 1159.5 ± 0.17 kg/m3 and a mass density (308.15 K, x2 = 0.3819) of 1137.63 ± 0.16 kg/m3. The mass density (308.15 K, x2 = 0.4258) was 1128.16 ± 0.16 kg/m3, the mass density (308.15 K, x2 = 0.5816) was 1096.17 ± 0.15 kg/m3 and the mass density (308.15 K, x2 = 0.6838) was 1076.38 ± 0.14 kg/m3. For the same compound, the mass density (308.15 K, x2 = 0.7875) was 1056.58 ± 0.14 kg/m3, the mass density (308.15 K, x2 = 0.8929) was 1036.88 ± 0.14 kg/m3 and the viscosity (318.15 K, x2 = 0) was 0.5719 ± 0.017 mPa·s. For the same compound, the viscosity (318.15 K, x2 = 0.0934) was 0.5856 ± 0.018 mPa·s, the viscosity (318.15 K, x2 = 0.1881) was 0.6042 ± 0.018 mPa·s and the viscosity (318.15 K, x2 = 0.2843) was 0.6266 ± 0.019 mPa·s. It also gave a viscosity (318.15 K, x2 = 0.3819) of 0.6499 ± 0.02 mPa·s, a viscosity (318.15 K, x2 = 0.4258) of 0.6611 ± 0.02 mPa·s and a viscosity (318.15 K, x2 = 0.5816) of 0.705 ± 0.022 mPa·s. The viscosity (318.15 K, x2 = 0.6838) was 0.7374 ± 0.023 mPa·s, the viscosity (318.15 K, x2 = 0.7875) was 0.775 ± 0.024 mPa·s and the viscosity (318.15 K, x2 = 0.8929) was 0.8234 ± 0.025 mPa·s. It also gave a mass density (318.15 K, x2 = 0) of 1214.55 ± 0.16 kg/m3, a mass density (318.15 K, x2 = 0.0934) of 1189.14 ± 0.18 kg/m3 and a mass density (318.15 K, x2 = 0.1881) of 1164.97 ± 0.17 kg/m3. The mass density (318.15 K, x2 = 0.2843) was 1141.96 ± 0.17 kg/m3, the mass density (318.15 K, x2 = 0.3819) was 1120 ± 0.16 kg/m3 and the mass density (318.15 K, x2 = 0.4258) was 1110.67 ± 0.15 kg/m3. For the same compound, the mass density (318.15 K, x2 = 0.5816) was 1079.43 ± 0.15 kg/m3, the mass density (318.15 K, x2 = 0.6838) was 1060.46 ± 0.14 kg/m3 and the mass density (318.15 K, x2 = 0.7875) was 1042.21 ± 0.14 kg/m3. It also gave a mass density (318.15 K, x2 = 0.8929) of 1024.08 ± 0.13 kg/m3.
